{"source": "patent US20080166323A1", "about": "“Activators of Hexosamine Biosynthesis as Inhibitors of Injury Induced by Ischemia or Hermorrhagic Shock” (UAB RESEARCH FOUNDATION, priority 2004, published 2008)", "key": {"[1]": {"tested_on": "rat model of trauma-hemorrhage and resuscitation", "assay": "soft tissue trauma-hemorrhage (T-H) and resuscitation, Example 1 (glucosamine before hemorrhage and during resuscitation)", "format": "in vivo", "procedure": "(§1) The following experiments were conducted using a model of soft tissue trauma-hemorrhage (T-H) as described in Ba, et al., Crit. Care Med (2000) 28(8):2837-2842; Chaudry, et al., Can J Physiol Pharmacol (1975) 53(5):859-865; Ma, et al., Am J Physiol Gastrointest Liver Physiol (2003) 284(1):G107-G115; and Harkema and Chaudry, Crit. Care Med (1992) 20(2):263-275. Male rats were fasted for 16 h and divided into three groups: (1) sham (trauma only); (2) T-H (trauma with subsequent hemorrhage and resuscitation); and (3) G-T-H (trauma with subsequent hemorrhage and resuscitation in the presence of glucosamine). All groups underwent a 5 cm ventral midline laparotomy to induce soft-tissue trauma and were cannulated in both femoral arteries and the right femoral vein. The T-H and G-T-H groups received an infusion of 3 mls over 30 minutes of Ringer's lactate (RL) containing, in the G-T-H group only, 10 mM glucosamine. These two groups were then bled to a mean arterial pressure of 40 mm Hg within 10 minutes and maintained at that pressure for 80 minutes. The T-H group was then infused with 1 ml RL over 10 minutes, while in the G-T-H group the infusate contained an iso-osmotic solution of 75 mM glucosamine (pH 7.4) in 50% RL. The two groups were then resuscitated with four times the maximum hemorrhage volume over a period of 60 minutes with RL (T-H) or RL containing 10 mM glucosamine (G-T-H). Sham-operated animals underwent the same surgical procedure but were neither bled nor resuscitated. Two hours post-resuscitation, a catheter was inserted into the left ventricle via the right carotid artery. Organ blood flows were determined using radioactive microspheres. Cardiac function and blood parameters were also assessed. The data for these experiments are shown in Tables 1 and 2 (values are mean ±standard error of the mean)."}, "[2]": {"tested_on": "rat model of trauma-hemorrhage and resuscitation", "assay": "trauma/hemorrhage mimicking the field, Example 2 (glucosamine only during resuscitation)", "format": "in vivo", "procedure": "as §1\nA second experiment was performed in order to mimic a trauma/hemorrhage in the field. There were no treatments in any of the three groups prior to trauma/hemorrhage. The T-H and G-T-H groups were partially resuscitated identically with two times the maximum hemorrhage volume over a period of 30 minutes. In the G-T-H group, a 1 ml bolus containing an iso-osmotic solution of 75 mM glucosamine (pH 7.4) in 50% RL was administered, while in the T-H group this bolus contained only RL. This was then followed with two times the maximum hemorrhage volume over a period of 30 minutes with RL (T-H) or RL containing 10 mM glucosamine (G-T-H). Sham-operated animals underwent the same surgical procedure but were neither bled nor resuscitated. The data for this experiment are shown in Tables 3 and 4 (values are mean ±standard error of the mean)."}, "[3]": {"conditions": "rat, G-T-H (n = 3), 2 h after T-H, glucosamine before hemorrhage and in resuscitation, mean ± SEM"}, "[4]": {"conditions": "rat, G-T-H, 2 h after T-H and resuscitation, Example 1, mean ± SEM"}, "[5]": {"conditions": "rat, G-T-H (n = 8), 2 h after T-H and resuscitation, Example 2, mean ± SEM"}, "[6]": {"conditions": "rat, G-T-H (n = 8), 2 h after T-H, glucosamine only during resuscitation, mean ± SEM"}}}
{"molecule": "N[C@H]1C(O)O[C@H](CO)[C@@H](O)[C@@H]1O", "note": "(stereo partly drawn) [glucosamine]", "values": [{"measurement": "Hepatic blood flow, change", "setting": "[1]; G-T-H group, Example 1", "value": "improved"}, {"measurement": "Total peripheral resistance, change", "setting": "[1]; G-T-H group, Example 1", "value": "decreased"}, {"measurement": "+dp/dt relative to the T-H group", "setting": "[1]; G-T-H vs T-H group, Example 1", "value": "markedly improved"}, {"measurement": "Cardiac output improvement over the T-H group", "setting": "[1]; G-T-H vs T-H group, Example 1", "value": "more than two-fold"}, {"measurement": "oxygen consumption relative to the T-H group", "setting": "[1]; G-T-H vs T-H group, Example 1", "value": "more than doubled"}, {"measurement": "oxygen delivery relative to the T-H group", "setting": "[1]; G-T-H vs T-H group, Example 1", "value": "more than doubled"}, {"measurement": "−dp/dt relative to the T-H group", "setting": "[1]; G-T-H vs T-H group, Example 1", "value": "markedly improved"}, {"measurement": "Cardiac output improvement over the sham group", "setting": "[1]; G-T-H vs sham group, Example 1", "value": "more than 50%"}, {"measurement": "+dp/dt", "setting": "[1]; [3]", "value": "14,400 ± 900 mm Hg/sec"}, {"measurement": "Cardiac Output", "setting": "[1]; [3]", "value": "40.5 ± 0.4", "unit": "ml/min 100 g body wt"}, {"measurement": "Heart Rate", "setting": "[1]; [3]", "value": "371 ± 15", "unit": "beat/minute"}, {"measurement": "Mean Arterial Pressure", "setting": "[1]; [3]", "value": "104 ± 3", "unit": "mm Hg"}, {"measurement": "Oxygen Consumption", "setting": "[1]; [3]", "value": "1.32 ± 0.15", "unit": "ml/min 100 g body wt"}, {"measurement": "Oxygen Delivery", "setting": "[1]; [3]", "value": "3.3 ± 0.1", "unit": "ml/min 100 g body wt"}, {"measurement": "Oxygen Extraction", "setting": "[1]; [3]", "value": "42.0 ± 5.4", "unit": "%"}, {"measurement": "Stroke volume", "setting": "[1]; [3]", "value": "109.7 ± 5.7", "unit": "μl/beat/100 g body wt"}, {"measurement": "Total Peripheral Resistance", "setting": "[1]; [3]", "value": "2.58 ± 0.10 mm Hg/ml/min/100 g body wt"}, {"measurement": "−dp/dt", "setting": "[1]; [3]", "value": "8,700 ± 600 mm Hg/sec"}, {"measurement": "Regional Blood Flow: Brain", "setting": "[1]; [4]", "value": "103 ± 11", "unit": "ml/min/100 g tissue"}, {"measurement": "Regional Blood Flow: Cardiac", "setting": "[1]; [4]", "value": "1,320 ± 170 ml/min/100 g tissue"}, {"measurement": "Regional Blood Flow: Cecum", "setting": "[1]; [4]", "value": "118 ± 29", "unit": "ml/min/100 g tissue"}, {"measurement": "Regional Blood Flow: Gastric", "setting": "[1]; [4]", "value": "78.3 ± 5.1", "unit": "ml/min/100 g tissue"}, {"measurement": "Regional Blood Flow: Hepatic Artery", "setting": "[1]; [4]", "value": "18.5 ± 6.0", "unit": "ml/min/100 g tissue"}, {"measurement": "Regional Blood Flow: Large Intestine", "setting": "[1]; [4]", "value": "101 ± 18", "unit": "ml/min/100 g tissue"}, {"measurement": "Regional Blood Flow: Lung", "setting": "[1]; [4]", "value": "74.2 ± 18.1", "unit": "ml/min/100 g tissue"}, {"measurement": "Regional Blood Flow: Mesenteric", "setting": "[1]; [4]", "value": "29.2 ± 5.0", "unit": "ml/min/100 g tissue"}, {"measurement": "Regional Blood Flow: Muscle", "setting": "[1]; [4]", "value": "6.45 ± 1.69", "unit": "ml/min/100 g tissue"}, {"measurement": "Regional Blood Flow: Pancreatic", "setting": "[1]; [4]", "value": "56 ± 4", "unit": "ml/min/100 g tissue"}, {"measurement": "Regional Blood Flow: Portal Vein", "setting": "[1]; [4]", "value": "187 ± 14", "unit": "ml/min/100 g tissue"}, {"measurement": "Regional Blood Flow: Renal", "setting": "[1]; [4]", "value": "374 ± 13", "unit": "ml/min/100 g tissue"}, {"measurement": "Regional Blood Flow: Skin", "setting": "[1]; [4]", "value": "53.9 ± 5.7", "unit": "ml/min/100 g tissue"}, {"measurement": "Regional Blood Flow: Small Intestine", "setting": "[1]; [4]", "value": "240 ± 24", "unit": "ml/min/100 g tissue"}, {"measurement": "Regional Blood Flow: Splenic", "setting": "[1]; [4]", "value": "46 ± 20", "unit": "ml/min/100 g tissue"}, {"measurement": "Regional Blood Flow: Thymus", "setting": "[1]; [4]", "value": "47.8 ± 10.5", "unit": "ml/min/100 g tissue"}, {"measurement": "Regional Blood Flow: Total Hepatic", "setting": "[1]; [4]", "value": "202 ± 20", "unit": "ml/min/100 g tissue"}, {"measurement": "protection in trauma/hemorrhage", "setting": "[2]; glucosamine only during resuscitation, Example 2", "value": "remarkably protective"}, {"measurement": "Regional Blood Flow: Brain", "setting": "[2]; [5]", "value": "151.58 ± 13.97", "unit": "ml/min/100 g tissue"}, {"measurement": "Regional Blood Flow: Cardiac", "setting": "[2]; [5]", "value": "933.65 ± 114.73", "unit": "ml/min/100 g tissue"}, {"measurement": "Regional Blood Flow: Cecum", "setting": "[2]; [5]", "value": "86.39 ± 10.70", "unit": "ml/min/100 g tissue"}, {"measurement": "Regional Blood Flow: Gastric", "setting": "[2]; [5]", "value": "71.08 ± 6.84", "unit": "ml/min/100 g tissue"}, {"measurement": "Regional Blood Flow: Hepatic Artery", "setting": "[2]; [5]", "value": "45.10 ± 6.58", "unit": "ml/min/100 g tissue"}, {"measurement": "Regional Blood Flow: Large Intestine", "setting": "[2]; [5]", "value": "96.83 ± 6.90", "unit": "ml/min/100 g tissue"}, {"measurement": "Regional Blood Flow: Lung", "setting": "[2]; [5]", "value": "29.71 ± 4.87", "unit": "ml/min/100 g tissue"}, {"measurement": "Regional Blood Flow: Mesenteric", "setting": "[2]; [5]", "value": "43.12 ± 9.56", "unit": "ml/min/100 g tissue"}, {"measurement": "Regional Blood Flow: Muscle", "setting": "[2]; [5]", "value": "32.97 ± 5.00", "unit": "ml/min/100 g tissue"}, {"measurement": "Regional Blood Flow: Pancreatic", "setting": "[2]; [5]", "value": "52.08 ± 5.53", "unit": "ml/min/100 g tissue"}, {"measurement": "Regional Blood Flow: Portal Vein", "setting": "[2]; [5]", "value": "211.57 ± 23.79", "unit": "ml/min/100 g tissue"}, {"measurement": "Regional Blood Flow: Renal", "setting": "[2]; [5]", "value": "472.07 ± 49.40", "unit": "ml/min/100 g tissue"}, {"measurement": "Regional Blood Flow: Skin", "setting": "[2]; [5]", "value": "11.65 ± 1.25", "unit": "ml/min/100 g tissue"}, {"measurement": "Regional Blood Flow: Small Intestine", "setting": "[2]; [5]", "value": "233.60 ± 27.07", "unit": "ml/min/100 g tissue"}, {"measurement": "Regional Blood Flow: Splenic", "setting": "[2]; [5]", "value": "54.77 ± 4.44", "unit": "ml/min/100 g tissue"}, {"measurement": "Regional Blood Flow: Thymus", "setting": "[2]; [5]", "value": "40.70 ± 4.96", "unit": "ml/min/100 g tissue"}, {"measurement": "Regional Blood Flow: Total Hepatic", "setting": "[2]; [5]", "value": "256.67 ± 27.12", "unit": "ml/min/100 g tissue"}, {"measurement": "+dp/dt", "setting": "[2]; [6]", "value": "13656 ± 7786", "unit": "mm Hg/sec"}, {"measurement": "Cardiac Output", "setting": "[2]; [6]", "value": "33.49 ± 2.12", "unit": "ml/min 100 g body wt"}, {"measurement": "Heart Rate", "setting": "[2]; [6]", "value": "394.50 ± 13.13", "unit": "beat/minute"}, {"measurement": "Mean Arterial Pressure", "setting": "[2]; [6]", "value": "97.88 ± 4.19", "unit": "mm Hg"}, {"measurement": "Oxygen Consumption", "setting": "[2]; [6]", "value": "0.93 ± 0.23", "unit": "ml/min 100 g body wt"}, {"measurement": "Oxygen Delivery", "setting": "[2]; [6]", "value": "2.52 ± 0.17", "unit": "ml/min 100 g body wt"}, {"measurement": "Oxygen Extraction", "setting": "[2]; [6]", "value": "34.48 ± 7.45", "unit": "%"}, {"measurement": "Stroke volume", "setting": "[2]; [6]", "value": "84.95 ± 4.66", "unit": "μl/beat/100 g body wt"}, {"measurement": "Total Peripheral Resistance", "setting": "[2]; [6]", "value": "3.05 ± 0.31 mm Hg/ml/min/100 g body wt"}, {"measurement": "−dp/dt", "setting": "[2]; [6]", "value": "8549 ± 549", "unit": "mm Hg/sec"}]}
